Source: ChEMBL document CHEMBL5653615 (J Biol Chem, 2013)

Tests used:
[1] = target: Protein-tyrosine kinase 6 (Homo sapiens) (UniProt Q13882); test: Inhibition of human BRK at 18.6 nM by HotSpot assay relative to control
[2] = target: T1, Myotonin-protein kinase (Homo sapiens) (UniProt Q09013); test: Inhibition of human DMPK at 18.6 nM by HotSpot assay relative to control
T1 sequence (whole entry): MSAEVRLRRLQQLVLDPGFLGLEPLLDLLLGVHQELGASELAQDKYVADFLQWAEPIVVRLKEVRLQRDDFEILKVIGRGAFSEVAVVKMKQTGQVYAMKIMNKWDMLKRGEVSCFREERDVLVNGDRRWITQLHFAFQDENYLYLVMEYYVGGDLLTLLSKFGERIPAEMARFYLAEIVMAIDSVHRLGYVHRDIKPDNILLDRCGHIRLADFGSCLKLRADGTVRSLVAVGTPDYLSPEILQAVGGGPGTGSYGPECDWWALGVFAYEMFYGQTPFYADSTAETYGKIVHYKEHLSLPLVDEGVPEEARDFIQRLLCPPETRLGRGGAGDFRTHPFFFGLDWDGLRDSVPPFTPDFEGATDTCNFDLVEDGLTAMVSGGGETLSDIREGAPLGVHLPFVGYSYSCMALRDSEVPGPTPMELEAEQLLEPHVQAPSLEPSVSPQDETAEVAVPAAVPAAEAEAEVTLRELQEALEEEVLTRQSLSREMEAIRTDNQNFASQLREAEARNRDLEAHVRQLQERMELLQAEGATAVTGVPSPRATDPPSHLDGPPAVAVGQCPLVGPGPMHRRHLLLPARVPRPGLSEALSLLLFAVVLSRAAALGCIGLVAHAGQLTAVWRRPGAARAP

[3] = target: T2, Dual specificity tyrosine-phosphorylation-regulated kinase 3 (Homo sapiens) (UniProt O43781); test: Inhibition of human DYRK3 at 18.6 nM by HotSpot assay relative to control
T2 sequence (whole entry): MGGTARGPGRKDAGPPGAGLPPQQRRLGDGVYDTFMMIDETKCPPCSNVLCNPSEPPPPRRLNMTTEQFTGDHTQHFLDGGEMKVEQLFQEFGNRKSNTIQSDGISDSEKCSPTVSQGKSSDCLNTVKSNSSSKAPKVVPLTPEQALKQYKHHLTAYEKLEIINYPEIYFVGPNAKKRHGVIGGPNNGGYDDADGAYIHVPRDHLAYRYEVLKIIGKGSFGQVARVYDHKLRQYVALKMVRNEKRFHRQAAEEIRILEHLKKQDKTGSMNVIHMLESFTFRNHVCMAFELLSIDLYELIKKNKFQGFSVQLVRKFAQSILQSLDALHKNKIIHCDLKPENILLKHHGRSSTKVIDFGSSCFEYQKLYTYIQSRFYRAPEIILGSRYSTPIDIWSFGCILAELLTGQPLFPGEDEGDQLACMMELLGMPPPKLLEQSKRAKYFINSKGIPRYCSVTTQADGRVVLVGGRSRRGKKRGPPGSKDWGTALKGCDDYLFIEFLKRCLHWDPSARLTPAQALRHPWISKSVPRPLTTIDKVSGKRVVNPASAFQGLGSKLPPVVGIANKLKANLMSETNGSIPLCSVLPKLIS

[4] = target: Tyrosine-protein kinase Fes/Fps (Homo sapiens) (UniProt P07332); test: Inhibition of human FES at 18.6 nM by HotSpot assay relative to control
[5] = target: Tyrosine-protein kinase ABL2 (Homo sapiens) (UniProt P42684); test: Inhibition of human ABL2 at 1.82 nM by HotSpot assay relative to control
Tyrosine-protein kinase ABL2 (Homo sapiens), sequence (P42684 whole entry): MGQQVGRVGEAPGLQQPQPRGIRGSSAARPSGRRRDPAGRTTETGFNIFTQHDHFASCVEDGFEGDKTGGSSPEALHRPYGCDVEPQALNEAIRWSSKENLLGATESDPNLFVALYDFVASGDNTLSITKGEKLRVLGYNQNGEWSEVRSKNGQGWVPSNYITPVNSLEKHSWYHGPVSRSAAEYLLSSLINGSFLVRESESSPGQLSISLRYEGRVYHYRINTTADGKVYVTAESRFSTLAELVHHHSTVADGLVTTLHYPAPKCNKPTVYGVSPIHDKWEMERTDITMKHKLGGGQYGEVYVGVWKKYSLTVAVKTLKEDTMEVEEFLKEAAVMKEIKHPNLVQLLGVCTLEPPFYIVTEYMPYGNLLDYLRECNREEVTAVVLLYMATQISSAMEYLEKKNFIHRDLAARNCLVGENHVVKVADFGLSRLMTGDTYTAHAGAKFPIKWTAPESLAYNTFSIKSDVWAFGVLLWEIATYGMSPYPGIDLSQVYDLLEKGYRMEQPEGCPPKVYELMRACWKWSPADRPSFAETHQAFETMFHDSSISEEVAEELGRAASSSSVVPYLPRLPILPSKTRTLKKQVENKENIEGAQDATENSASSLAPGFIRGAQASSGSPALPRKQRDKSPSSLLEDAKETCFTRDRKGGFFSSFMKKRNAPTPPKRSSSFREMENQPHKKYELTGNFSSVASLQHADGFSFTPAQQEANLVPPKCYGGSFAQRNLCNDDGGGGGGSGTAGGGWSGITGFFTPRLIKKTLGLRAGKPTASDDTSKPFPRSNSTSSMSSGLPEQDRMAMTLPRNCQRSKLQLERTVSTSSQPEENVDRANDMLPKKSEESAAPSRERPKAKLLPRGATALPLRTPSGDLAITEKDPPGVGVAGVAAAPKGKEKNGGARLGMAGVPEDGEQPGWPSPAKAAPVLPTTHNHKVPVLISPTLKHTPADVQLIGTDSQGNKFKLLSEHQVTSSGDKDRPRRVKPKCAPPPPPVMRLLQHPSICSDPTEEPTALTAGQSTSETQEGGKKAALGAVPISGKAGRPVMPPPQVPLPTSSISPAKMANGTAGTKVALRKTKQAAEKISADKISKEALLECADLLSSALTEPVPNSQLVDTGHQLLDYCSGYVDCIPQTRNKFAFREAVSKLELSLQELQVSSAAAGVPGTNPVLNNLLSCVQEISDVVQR

[6] = target: Aurora kinase B (Homo sapiens) (UniProt Q96GD4); test: Inhibition of human Aurora B at 1.82 nM by HotSpot assay relative to control
[7] = target: Tyrosine-protein kinase Blk (Homo sapiens) (UniProt P51451); test: Inhibition of human BLK at 1.82 nM by HotSpot assay relative to control
Tyrosine-protein kinase Blk (Homo sapiens), sequence (P51451 2-505 limits assumed): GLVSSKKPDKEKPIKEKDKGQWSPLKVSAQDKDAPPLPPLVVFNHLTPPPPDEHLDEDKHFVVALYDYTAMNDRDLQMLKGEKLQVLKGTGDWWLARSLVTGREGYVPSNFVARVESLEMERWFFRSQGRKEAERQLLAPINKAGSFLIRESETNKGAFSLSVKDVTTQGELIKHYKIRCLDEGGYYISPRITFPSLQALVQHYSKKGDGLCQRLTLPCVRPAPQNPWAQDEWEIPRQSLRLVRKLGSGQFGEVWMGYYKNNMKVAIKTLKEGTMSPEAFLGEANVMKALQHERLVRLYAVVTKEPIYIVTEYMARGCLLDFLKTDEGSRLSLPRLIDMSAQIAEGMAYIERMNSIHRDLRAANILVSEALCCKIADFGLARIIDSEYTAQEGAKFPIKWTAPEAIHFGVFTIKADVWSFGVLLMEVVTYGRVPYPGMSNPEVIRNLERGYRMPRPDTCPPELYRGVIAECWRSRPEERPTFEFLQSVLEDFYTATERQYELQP

[8] = target: Casein kinase I isoform gamma-3 (Homo sapiens) (UniProt Q9Y6M4); test: Inhibition of human CK1g3 at 1.82 nM by HotSpot assay relative to control
Casein kinase I isoform gamma-3 (Homo sapiens), sequence (Q9Y6M4 whole entry, looked up, canonical isoform): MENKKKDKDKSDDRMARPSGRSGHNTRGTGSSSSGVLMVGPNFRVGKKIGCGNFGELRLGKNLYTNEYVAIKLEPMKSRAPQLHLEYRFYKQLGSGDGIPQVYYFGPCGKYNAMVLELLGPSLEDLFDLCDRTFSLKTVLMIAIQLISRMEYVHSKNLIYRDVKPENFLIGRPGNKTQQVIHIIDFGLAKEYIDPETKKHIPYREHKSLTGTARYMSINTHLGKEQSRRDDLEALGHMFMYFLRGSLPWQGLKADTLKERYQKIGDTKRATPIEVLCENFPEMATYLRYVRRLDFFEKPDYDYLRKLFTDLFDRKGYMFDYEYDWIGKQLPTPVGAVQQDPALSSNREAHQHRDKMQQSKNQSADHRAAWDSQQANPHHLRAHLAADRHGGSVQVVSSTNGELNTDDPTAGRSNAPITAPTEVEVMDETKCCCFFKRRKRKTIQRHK

[9] = target: Mitogen-activated protein kinase kinase kinase 8 (Homo sapiens) (UniProt P41279); test: Inhibition of human COT1 at 1.82 nM by HotSpot assay relative to control
Mitogen-activated protein kinase kinase kinase 8 (Homo sapiens), sequence (P41279 whole entry): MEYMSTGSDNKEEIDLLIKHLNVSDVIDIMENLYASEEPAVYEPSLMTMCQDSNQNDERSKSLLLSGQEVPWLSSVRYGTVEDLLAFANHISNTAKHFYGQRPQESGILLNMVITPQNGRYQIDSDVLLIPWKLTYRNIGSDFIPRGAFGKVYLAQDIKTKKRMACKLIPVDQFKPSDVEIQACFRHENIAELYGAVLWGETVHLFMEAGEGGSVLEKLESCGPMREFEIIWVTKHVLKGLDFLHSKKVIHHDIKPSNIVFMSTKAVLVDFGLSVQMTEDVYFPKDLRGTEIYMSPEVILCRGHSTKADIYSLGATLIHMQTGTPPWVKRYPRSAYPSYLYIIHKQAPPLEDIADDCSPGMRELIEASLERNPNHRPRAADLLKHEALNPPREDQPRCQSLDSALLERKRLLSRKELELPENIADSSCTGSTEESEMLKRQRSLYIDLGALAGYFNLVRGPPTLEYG

[10] = target: Receptor tyrosine-protein kinase erbB-4 (Homo sapiens) (UniProt Q15303); test: Inhibition of human ERBB4 at 1.82 nM by HotSpot assay relative to control
Receptor tyrosine-protein kinase erbB-4 (Homo sapiens), sequence (Q15303 whole entry): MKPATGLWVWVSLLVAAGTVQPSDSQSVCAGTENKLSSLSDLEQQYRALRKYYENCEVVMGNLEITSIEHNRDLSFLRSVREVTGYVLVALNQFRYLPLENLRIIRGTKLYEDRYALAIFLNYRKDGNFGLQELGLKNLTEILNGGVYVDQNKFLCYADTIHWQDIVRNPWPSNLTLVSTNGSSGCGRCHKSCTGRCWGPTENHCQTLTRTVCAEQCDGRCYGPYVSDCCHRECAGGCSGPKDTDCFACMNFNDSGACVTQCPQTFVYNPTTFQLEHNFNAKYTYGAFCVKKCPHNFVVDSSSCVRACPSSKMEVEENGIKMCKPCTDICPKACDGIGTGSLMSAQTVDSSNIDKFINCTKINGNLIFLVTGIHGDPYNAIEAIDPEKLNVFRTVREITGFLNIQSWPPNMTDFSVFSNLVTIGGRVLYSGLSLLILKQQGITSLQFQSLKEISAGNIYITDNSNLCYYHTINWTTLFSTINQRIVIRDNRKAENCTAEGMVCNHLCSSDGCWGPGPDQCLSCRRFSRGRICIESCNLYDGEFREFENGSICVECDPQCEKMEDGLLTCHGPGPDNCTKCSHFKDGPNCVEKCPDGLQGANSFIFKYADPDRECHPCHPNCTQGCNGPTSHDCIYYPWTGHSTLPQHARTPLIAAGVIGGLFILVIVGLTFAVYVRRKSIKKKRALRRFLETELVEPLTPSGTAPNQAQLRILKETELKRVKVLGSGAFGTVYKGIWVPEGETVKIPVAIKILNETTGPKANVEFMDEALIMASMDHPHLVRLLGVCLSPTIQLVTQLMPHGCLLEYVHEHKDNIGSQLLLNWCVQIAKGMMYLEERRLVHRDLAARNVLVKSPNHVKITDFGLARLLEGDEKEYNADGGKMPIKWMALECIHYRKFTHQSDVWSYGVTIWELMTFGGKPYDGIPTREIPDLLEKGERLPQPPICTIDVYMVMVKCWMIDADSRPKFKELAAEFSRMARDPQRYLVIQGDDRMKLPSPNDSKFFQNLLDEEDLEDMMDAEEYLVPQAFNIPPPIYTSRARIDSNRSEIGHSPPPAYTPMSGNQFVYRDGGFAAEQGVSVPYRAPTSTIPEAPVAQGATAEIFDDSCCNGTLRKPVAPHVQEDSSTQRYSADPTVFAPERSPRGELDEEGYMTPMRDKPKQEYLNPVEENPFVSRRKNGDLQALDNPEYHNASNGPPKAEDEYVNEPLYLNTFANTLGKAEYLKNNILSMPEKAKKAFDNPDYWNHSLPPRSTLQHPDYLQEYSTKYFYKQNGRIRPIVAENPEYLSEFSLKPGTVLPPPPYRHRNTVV

[11] = target: Mitogen-activated protein kinase kinase kinase kinase 5 (Homo sapiens) (UniProt Q9Y4K4); test: Inhibition of human KHS at 1.82 nM by HotSpot assay relative to control
Mitogen-activated protein kinase kinase kinase kinase 5 (Homo sapiens), sequence (Q9Y4K4 whole entry, looked up): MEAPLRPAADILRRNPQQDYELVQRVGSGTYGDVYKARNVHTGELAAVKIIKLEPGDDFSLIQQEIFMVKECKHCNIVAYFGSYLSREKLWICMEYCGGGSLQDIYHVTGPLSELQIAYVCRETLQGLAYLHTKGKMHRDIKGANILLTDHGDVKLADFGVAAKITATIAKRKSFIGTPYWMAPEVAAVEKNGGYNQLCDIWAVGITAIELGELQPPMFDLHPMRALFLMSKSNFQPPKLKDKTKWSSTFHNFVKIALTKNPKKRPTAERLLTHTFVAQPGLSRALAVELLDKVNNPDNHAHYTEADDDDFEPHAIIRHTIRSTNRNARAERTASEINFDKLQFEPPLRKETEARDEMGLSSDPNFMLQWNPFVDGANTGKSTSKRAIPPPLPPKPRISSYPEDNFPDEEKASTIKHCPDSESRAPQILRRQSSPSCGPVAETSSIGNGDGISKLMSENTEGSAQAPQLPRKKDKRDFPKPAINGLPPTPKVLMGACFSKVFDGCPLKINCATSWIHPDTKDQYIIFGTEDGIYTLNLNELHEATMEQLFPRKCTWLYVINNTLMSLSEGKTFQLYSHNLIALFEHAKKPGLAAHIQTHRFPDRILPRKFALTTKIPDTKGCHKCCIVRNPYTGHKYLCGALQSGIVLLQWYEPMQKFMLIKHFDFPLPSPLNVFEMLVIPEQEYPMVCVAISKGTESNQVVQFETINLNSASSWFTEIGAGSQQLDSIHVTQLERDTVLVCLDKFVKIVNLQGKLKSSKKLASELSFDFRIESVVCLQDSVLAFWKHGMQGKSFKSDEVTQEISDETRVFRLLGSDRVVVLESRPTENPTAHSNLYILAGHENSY

[12] = target: Serine/threonine-protein kinase pim-1 (Homo sapiens) (UniProt P11309); test: Inhibition of human PIM1 at 1.82 nM by HotSpot assay relative to control
Serine/threonine-protein kinase pim-1 (Homo sapiens), sequence (P11309 whole entry, looked up): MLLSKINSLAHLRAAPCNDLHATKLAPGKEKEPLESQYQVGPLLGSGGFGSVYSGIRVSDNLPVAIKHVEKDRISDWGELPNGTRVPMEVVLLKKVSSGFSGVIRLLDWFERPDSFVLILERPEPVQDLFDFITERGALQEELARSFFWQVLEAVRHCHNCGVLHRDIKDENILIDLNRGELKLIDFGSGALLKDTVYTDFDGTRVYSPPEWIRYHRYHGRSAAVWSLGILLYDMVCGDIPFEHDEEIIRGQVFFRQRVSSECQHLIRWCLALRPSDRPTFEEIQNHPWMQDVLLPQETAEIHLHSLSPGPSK

[13] = target: cAMP-dependent protein kinase (PKA) (Homo sapiens) (UniProt P22694+P17612+P22612); test: Inhibition of human PKA at 1.82 nM by HotSpot assay relative to control; format: protein assay
[14] = target: Proto-oncogene tyrosine-protein kinase ROS (Homo sapiens) (UniProt P08922); test: Inhibition of human ROS1 at 1.82 nM by HotSpot assay relative to control
[15] = target: Serine/threonine-protein kinase SIK2 (Homo sapiens) (UniProt Q9H0K1); test: Inhibition of human SIK2 at 1.82 nM by HotSpot assay relative to control
[16] = target: Leukocyte tyrosine kinase receptor (Homo sapiens) (UniProt P29376); test: Inhibition of human LTK at 1.82 nM by HotSpot assay relative to control

inhibition [1] [%]	inhibition [2] [%]	inhibition [3] [%]	inhibition [4] [%]	inhibition [5] [%]	inhibition [6] [%]	inhibition [7] [%]	inhibition [8] [%]	inhibition [9] [%]	inhibition [10] [%]	inhibition [11] [%]	inhibition [12] [%]	inhibition [13] [%]	inhibition [14] [%]	inhibition [15] [%]	inhibition [16] [%]	Structure (SMILES)
3.64	-3.25	3.01	1.59	–	–	–	–	–	–	–	–	–	–	–	–	C[C@]1(O)C[C@@H](c2nc(-c3ccc4ccc(-c5ccccc5)nc4c3)c3c(N)nccn32)C1
–	–	–	–	-4.72	-0.68	-5.89	0.91	10.7	3.49	-3.57	-5.96	-3.44	73.5	-6.97	-7.41	C[C@@]1(C(=O)Nc2ccc(F)nc2)CCCN1c1nc(Nc2cc(C3CC3)n[nH]2)c2cccn2n1
